Here are results for 93 compounds from ChEMBL document CHEMBL3507680, “University of Dundee, Gates Library screen for HepG2 cell viability”.

The nature of the series: Human HepG2 cell viability assay in 384 well format. Type of series: toxicity, cell-based. Also noted: dose 125 nL, time 70.5 hour; concentration not given beside the values. The conditions noted are these: HepG2 cells, read-out: Inhibition.

SMILES strings stand for the structures.

With `CS(=O)(=O)c1nccn1CCOc1ccccc1F`, the cytotoxicity at 70.5 h was determined as 13.8%.

In the case of `COc1cccc(C2=CCN(CCN3CCOC3=O)CC2)c1`, the cytotoxicity at 70.5 h turned out to be 11.1%. Take `CS(=O)(=O)N1CCO[C@@H]2CN(C(=O)N3CCCC3)CC[C@@H]2C1`: the cytotoxicity at 70.5 h is -8.13%.

Take `CN(C)C(=O)CN1CCO[C@H]2CN(Cc3ccoc3)C[C@H]21`: the cytotoxicity at 70.5 h is -4.25%. Turning to `CC(C)NC(=O)C1CN(C(=O)N(C)C)CC12CCOCC2` (stereo not drawn), the cytotoxicity at 70.5 h is -3.34%. For the compound `Cc1ccc(CNCC2Cn3nncc3CO2)o1` (stereo not drawn), the cytotoxicity at 70.5 h is -3.52%.

With `Cc1nnc([C@@]23CCO[C@@H]2CCN(S(=O)(=O)c2cccnc2)C3)o1`, the cytotoxicity at 70.5 h is -5.15%. In the case of `COCC1CC2(CCN(Cc3ccoc3)CC2)CN1Cc1ccccn1` (stereo not drawn) it was 16.1%; in that of `c1coc(CNCC2Cn3nncc3CO2)c1` (stereo not drawn), -8.73%; in that of `Cc1ccc(CN2C[C@H](NC(=O)c3nccn3C)[C@H]3OCCC[C@H]32)o1`, 18.3%. For `COCC1c2nnn(C)c2CCN1C(=O)COc1ccccc1OC` (stereo not drawn) the value was 1.52%; for `CN(C)C(=O)NCC1CC2(CO1)CN(c1nncs1)C2` (stereo not drawn), 1.71%. In the case of `CN1CCC2(C=C(C(=O)N(C)C)c3ccccc32)CC1` it was 2.91%.

As for `COCC1c2nnn(C)c2CCN1C(=O)c1ccc(OC)c(F)c1` (stereo not drawn), the cytotoxicity at 70.5 h was -7.3%. For `Cc1nc(COC[C@@]23CCC[C@@H]2CN(Cc2cnn(C)c2)C3)cs1` the value was -5%. Consider `Cc1csc([C@H]2C[C@@H]3CCN(Cc4cc(C)on4)C[C@H]3O2)n1`, for which the cytotoxicity at 70.5 h is -5.27%.

With `COCC1c2nnn(C)c2CCN1C(=O)CCc1cccc(OC)c1` (stereo not drawn), the cytotoxicity at 70.5 h is -3.47%. For the compound `CCN1CCN(C)C2(CCN(C(=O)CC(F)(F)F)CC2)C1=O`, the cytotoxicity at 70.5 h is 0.29%. As for `CN1CCN(C)C2(CCN(C(=O)CC(F)(F)F)CC2)C1=O`, the cytotoxicity at 70.5 h was 0.213%.

Consider `CCN1CC2(CC1=O)CN(C(=O)NC(C)C)CCN(C(=O)NC(C)C)C2`, for which the cytotoxicity at 70.5 h is -4.47%. For the compound `c1cncc(N2CCCn3nnc(CN4CCOCC4)c3C2)c1`, the cytotoxicity at 70.5 h was -5%. In the case of `CCn1nc(C)cc1C(=O)N1C[C@@H]2C[C@@H](c3nc(C)cs3)O[C@@H]2C1` it was -2.46%; in that of `CO[C@H]1CCN(C(=O)Cc2ccc(F)cc2)[C@H]1Cc1ccncc1`, -8.07%; in that of `COC[C@@]12CCC[C@@H]1CN(C(=O)COC1CCCC1)C2`, -6.5%. For the compound `COC[C@@]12CCC[C@@H]1CN(C(=O)N1CCCC1)C2`, the cytotoxicity at 70.5 h is -6.53%.

On to `CCN1C[C@H]2CCN(C(=O)Cc3cccc(OC)c3)CC[C@H]2S1(=O)=O`, for which the cytotoxicity at 70.5 h was -8.13%. For `Cn1ccnc1CN1CCC2(COCCN(S(=O)(=O)C3CC3)C2)C1` (stereo not drawn) the value was -10.6%; for `CS(=O)(=O)N1CCCC12CCN(Cc1ccoc1)CC2`, -3.22%. For `CC(C)CNC(=O)C1=NOC2(CCN(Cc3ccoc3)C2)C1` (stereo not drawn) the value was -0.398%; for `C[C@H]1CN(C(=O)c2cccnc2)C[C@@]12CCN(CCN1CCCC1)C2=O`, -6.14%. In the case of `Cc1cccc(CN2CC[C@H]3OCC[C@@]3(C(=O)N3CCOCC3)C2)n1` it was -4.06%; in that of `CN(C)C(=O)[C@H]1C[C@@H]2CN(S(=O)(=O)Cc3ccccc3)C[C@H]1O2`, -17.1%. `Cn1cc(-c2cnc(N3CCOCC3)nc2)cc1C(=O)N1CCOCC1`: the cytotoxicity at 70.5 h is -22%. As to `COCCC(=O)N1CC2(CCN(Cc3ccoc3)C2)C1`, the cytotoxicity at 70.5 h was 33.7%. In the case of `COCC1CN(C(=O)c2ccoc2C)Cc2nccn2C1` (stereo not drawn) it was 22.7%.

Consider `COCC1CN(C(=O)c2cccn2C)Cc2nccn2C1` (stereo not drawn), for which the cytotoxicity at 70.5 h is -18.2%. Regarding `Cc1ccc(CN2CCCC3(CCN(S(=O)(=O)N(C)C)C3)C2)o1` (stereo not drawn), the cytotoxicity at 70.5 h was -9.63%. Regarding `CC(C)Nc1nc(N2CCOCC2)nc2c1CN(Cc1ccoc1)CC2`, the cytotoxicity at 70.5 h is -12.3%. For `CC(=O)NCC(=O)N1CCN(CC2CC2)c2ncccc2C1`, the cytotoxicity at 70.5 h is -9.1%. Take `c1ccc(-c2nnn3c2COC(CNCC2CCOCC2)C3)cc1` (stereo not drawn): the cytotoxicity at 70.5 h is -5.85%.

Consider `Cn1cccc1C(=O)N1CCc2ncnc(C3CC3)c2CC1`, for which the cytotoxicity at 70.5 h is -0.695%. For `O=C1NC2(CCNCC2)CC1c1cccnc1` (stereo not drawn) the value was -7.17%; for `CCO[C@@H]1CCN(C(=O)c2ccc[nH]2)[C@@H]1Cc1cnn(C)c1`, -2.67%. For `CCO[C@@H]1CCN(C(=O)c2cscn2)[C@@H]1Cc1cnn(C)c1` the value was -10.2%; for `CO[C@H]1CCN(C(=O)Cc2ccccn2)[C@H]1Cc1ccncc1`, -7.06%; for `O=C(c1cccnc1)N1CCC2(CC1)CNc1c(F)cccc12`, -1.96%. Take `c1ccc2c(c1)C(NC1CCCC1)CC21CCNCC1` (stereo not drawn): the cytotoxicity at 70.5 h was -1.32%.

With `Cc1ccc2c(c1)C1(CCNCC1)CC2NCCO` (stereo not drawn), the cytotoxicity at 70.5 h was -1.58%. For `CCc1ncnc2c1CCN(CC(=O)N(C)C)CC2` the value was -1.77%; for `Cc1nnc([C@]23COC[C@H]2CN(S(=O)(=O)c2cccnc2)C3)o1`, -5.13%; for `Cn1ccnc1C(=O)N[C@@H]1CN(CC2CCOCC2)[C@@H]2CCCO[C@@H]21`, -2.65%.

In the case of `COCCN1C(=O)CC(c2cccnc2)C12CCN(C(=O)C1CC1)CC2` (stereo not drawn), the cytotoxicity at 70.5 h was -0.348%. For `O=C(c1ccccc1F)N1CCC2(CC1)CC(N1CCCC1)CO2` (stereo not drawn) the value was -7.88%; for `CC(C)CN1CCC2(C=C(C(=O)N(C)C)c3ccccc32)CC1`, -2.19%. With `Cn1cc(CN2C[C@H]3CCC[C@@]3(COCC3CC3)C2)cn1`, the cytotoxicity at 70.5 h was -1.1%. On to `Cn1ccnc1C(=O)N[C@@H]1CN(Cc2ccoc2)[C@@H]2CCCO[C@@H]21`, for which the cytotoxicity at 70.5 h is -2.77%. In the case of `Cc1csc([C@H]2C[C@H]3CN(Cc4cc(C)on4)CC[C@@H]3O2)n1` it was -7.64%; in that of `CCN1CCC2(C=C(C(=O)N(C)C)c3ccccc32)CC1`, 0.372%; in that of `Fc1cnc(N2CCCC3(CN(Cc4cccs4)CCO3)C2)nc1` (stereo not drawn), 2.35%.

`CNC(=O)[C@H]1C[C@@H]2CN(Cc3ccc(OC)cc3)C[C@H]1O2`: the cytotoxicity at 70.5 h is -4.08%.

Turning to `CO[C@@H]1CCN(C(=O)Cc2ccc(F)cc2)[C@@H]1Cc1cccnc1`, the cytotoxicity at 70.5 h is -3.63%. Regarding `Cn1ccnc1CN1CCC2(CC1)COCCN(S(C)(=O)=O)C2`, the cytotoxicity at 70.5 h was -7.67%. For `CNC(=O)[C@H]1C[C@@H]2CN(Cc3ccc(C)cc3)C[C@H]1O2` the value was -6.44%; for `CNC(=O)[C@H]1C[C@@H]2CN(Cc3ccccc3)C[C@H]1O2`, -5.88%; for `Cc1ccc(CN2CCc3onc(C(=O)N4CCCC4)c3C2)o1`, -6.06%. In the case of `COCC1COCCC12CCN(Cc1cccs1)CC2` (stereo not drawn) it was -7.86%; in that of `CN(C)C(=O)CN1CCC2(CCCN(Cc3cccn3C)C2)C1=O` (stereo not drawn), 25.7%; in that of `O=C(NC1CC1)[C@H]1C[C@@H]2CCN(CCc3ccccc3)C[C@H]2O1`, -11.8%.

As for `O=C(NC[C@]12COC[C@H]1CN(C1CCOCC1)C2)c1ccco1`, the cytotoxicity at 70.5 h is -0.469%. For `CN(Cc1cn2c(n1)CN(C(=O)CC1CC1)CC2)Cc1ccco1`, the cytotoxicity at 70.5 h was -4.98%. For `Cn1nnc2c1CCN(CC1CC1)C2COCc1ccccc1` (stereo not drawn) the value was -6.64%; for `O=C(c1cccc(Cl)c1)N1CCCn2c(CN3CCCCC3)nnc2C1`, -1.86%.

On to `c1ncn(Cc2cnc3n2CCN(Cc2ccsc2)CC3)n1`, for which the cytotoxicity at 70.5 h turned out to be 1.42%.

`O=C1CCC2(CCN(Cc3nccs3)CC2)N1Cc1ccccc1`: the cytotoxicity at 70.5 h is -7.75%.

Take `COCC1CC2(CCN(CC3CC3)CC2)CN1Cc1ccccn1` (stereo not drawn): the cytotoxicity at 70.5 h is -2.19%. In the case of `Cc1ccc(CN2CCc3onc(C(=O)Nc4cccnc4)c3C2)o1` it was -7.97%; in that of `Fc1cnc(N2CCC3(CC2)CN(Cc2cccs2)CCO3)nc1`, -6.3%.

`O=C(C[C@@H]1COC[C@H]2CN(C3CCCC3)C[C@@H]12)NCc1cccnc1`: the cytotoxicity at 70.5 h is -8.82%.

Regarding `O=C(C[C@@H]1COC[C@H]2CN(CC3CC3)C[C@@H]12)NCc1cccnc1`, the cytotoxicity at 70.5 h was -11.6%. Take `Cc1cccc(CN2CC[C@H]3OCC[C@@]3(C(=O)N3CCCO3)C2)n1`: the cytotoxicity at 70.5 h is -2.84%.

On to `Cc1ccc(N2C[C@H](C)[C@]3(CCN(c4cccnc4)C3=O)C2)nn1`, for which the cytotoxicity at 70.5 h was -3.28%.

For the compound `O=C1[C@@H]2CCN(Cc3ccoc3)C[C@@H]2OCCN1Cc1cccnc1`, the cytotoxicity at 70.5 h was -20.5%. For `c1cncc(OC[C@@H]2CC[C@H]3[C@H](CCN3Cc3cccs3)O2)c1` the value was -4.43%; for `Cn1cc(CN2C[C@@H]3COC[C@@H](C(=O)N4CCCCO4)[C@@H]3C2)cn1`, -1.2%. In the case of `c1cnc(N2CCOC3(CCN(CC4CCCCC4)CC3)C2)nc1` it was -4.82%. For the compound `Cc1noc(C)c1CN1CCN(CC2CC2)c2ncccc2C1`, the cytotoxicity at 70.5 h is -5.96%.

`CN(Cc1ccco1)[C@@H]1CN(Cc2ccco2)[C@@H]2CCCO[C@H]12`: the cytotoxicity at 70.5 h was -9.38%. Turning to `c1cncc(CN2CCN3C[C@H](Oc4cncnc4)C[C@H]3C2)c1`, the cytotoxicity at 70.5 h was -5.49%. `c1cnn(C[C@@H]2C[C@@H]3CN(CC4CC4)CC[C@@H]3N2c2nccs2)c1`: the cytotoxicity at 70.5 h was 0.124%. For `CN1CCN(Cc2cn3c(n2)CN(C2CCOCC2)CC3)CC1` the value was -6.56%; for `CO[C@H]1CCN(Cc2c(C)noc2C)[C@@H]2CN(Cc3ccncc3)C[C@H]12`, -5.37%. Consider `O=C(Nc1cccnc1)[C@H]1CN(Cc2nccs2)C[C@H]2OCC[C@@H]12`, for which the cytotoxicity at 70.5 h came out at 35.5%.

Regarding `CN(Cc1ccccn1)C1CC2(CCN(Cc3cccnc3)CC2)C1`, the cytotoxicity at 70.5 h is 5.08%.
